Experimental data from paper PMC7031696 (Cell chemical biology, 2019).
Values after ≈ are worked out from the molar mass of the structure shown. “Also recorded” adds a separate entry of the source. Where two headings read alike, the source gives them in different places.

Key:
[1] = test system: Plasmodium falciparum 3D7-A10 parasites; assay: Stage specificity assay (8-h exposure of synchronized stages, IC50^8h); format: cell-based; conditions: for IC50: Plasmodium falciparum
[2] = test system: asynchronous 3D7-A10 parasite cultures; assay: Standard 72-h exposure asexual blood stage susceptibility assay (IC50^72h); format: cell-based, Plasmodium falciparum; conditions: Plasmodium falciparum, 3D7, 72 h, read-out: Overall (72hr assay) Mean IC50 (IC50^72h)
[3] = test system: 3D7-MR4 trophozoite parasite-infected RBCs; assay: Metabolomic profiling (hydrophilic metabolite changes, UHPLC-MS); format: cell-based, Plasmodium falciparum
[4] = 1.5 h, 500 μM, pH 7.4
physchem = conditions: pH 7.4, aqueous buffer, kinetic from dmso stock
[5] = 10 × IC50^72h, 2.5 hr, trophozoites

## Clc1ccc2c(N3CCN(CCCN4CCN(c5ccnc6cc(Cl)ccc56)CC4)CC3)ccnc2c1 [Piperaquine, reference compound]
[1]; 3D7-A10
  Ratio lowest IC50 8hr/IC50 72hr: 1.7
[1]; 8-h exposures
  overall activity profile (stages on which active): activity on all stages
[1]; 3D7, read-out: Early rings Mean IC50 (IC50^8h), 8-h exposure 0–8 hr, 3D7-A10, survival at 60 h
  IC50: 26.2 nM
[1]; 3D7, read-out: Early trophozoites Mean IC50 (IC50^8h), 8-h exposure 16–24 hr, 3D7-A10, survival at 60 h
  IC50: 27.4 nM
[1]; 3D7, read-out: Late rings Mean IC50 (IC50^8h), 8-h exposure 8–16 hr, 3D7-A10, survival at 60 h
  IC50: 46.3 nM
[1]; 3D7, read-out: Late trophozoites Mean IC50 (IC50^8h), 8-h exposure 24–32 hr, 3D7-A10, survival at 60 h
  IC50: 32.9 nM
[1]; 3D7, read-out: Schizonts Mean IC50 (IC50^8h), 8-h exposure 32–40 hr, 3D7-A10, survival at 60 h
  IC50: 67 nM
[1]; most susceptible stages
  IC50^8h relative to IC50^72h value: ≤ 2 fold
[1]; period when the parasite was most susceptible (lowest IC50^8h)
  Stage of peak activity (Figure 6): ring and trophozoite stages; also recorded: rings and trophozoites
[2]
  IC50: 15.4 nM
[3]; [5]
  changes within the set of metabolites detected (low fold change group): did not induce major changes
  decreased levels of dCDP, dTMP, guanosine, and guanine: ≥ 2 fold
[3]; metabolite 3-phosphoglycerate, log2 fold change
  Log2(fold changes) 3-phosphoglycerate: 0.1576
[3]; metabolite 4-Pyridoxic acid, log2 fold change
  Log2(fold changes) 4-Pyridoxic acid: 0.0000
[3]; metabolite 4-aminobutyrate, log2 fold change
  Log2(fold changes) 4-aminobutyrate: -0.0347
[3]; metabolite 4-phosphopantetheine, log2 fold change
  Log2(fold changes) 4-phosphopantetheine: 0.0000
[3]; metabolite 4-phosphopantothenate, log2 fold change
  Log2(fold changes) 4-phosphopantothenate: -0.1578
[3]; metabolite 5-aminopentanoic acid, log2 fold change
  Log2(fold changes) 5-aminopentanoic acid: 0.0000
[3]; metabolite 5-methyl-THF, log2 fold change
  Log2(fold changes) 5-methyl-THF: 0.0000
[3]; metabolite 5-phosphoribosyl-1-pyrophosphate, log2 fold change
  Log2(fold changes) 5-phosphoribosyl-1-pyrophosphate: 0.2840
[3]; metabolite 6-phospho-D-gluconate, log2 fold change
  Log2(fold changes) 6-phospho-D-gluconate: 0.0537
[3]; metabolite HVDD
  Log2(fold change) HVDD: 0.0000
[3]; metabolite Hydroxyisocaproic acid
  Log2(fold change) Hydroxyisocaproic acid: 0.0000
[3]; metabolite IDP
  Log2(fold change) IDP: -0.0045
[3]; metabolite IMP
  Log2(fold change) IMP: -0.1159
[3]; metabolite Inositol
  Log2(fold change) Inositol: 0.0000
[3]; metabolite Isopentyl-PP
  Log2(fold change) Isopentyl-PP: 0.0000
[3]; metabolite L-arginino-succinate
  Log2(fold change) L-arginino-succinate: 0.0000
[3]; metabolite LD
  Log2(fold change) LD: 0.0483
[3]; metabolite Myristoyl/tetradecanoyl-CoA
  Log2(fold change) Myristoyl/tetradecanoyl-CoA: 0.0000
[3]; metabolite N-Acetyl-L-alanine
  Log2(fold change) N-Acetyl-L-alanine: -0.2552
[3]; metabolite N-acetyl-L-ornithine
  Log2(fold change) N-acetyl-L-ornithine: -0.0188
[3]; metabolite N-acetyl-glucosamine-1/6-phosphate
  Log2(fold change) N-acetyl-glucosamine-1/6-phosphate: -0.1206
[3]; metabolite N-acetyl-glutamate
  Log2(fold change) N-acetyl-glutamate: -0.0276
[3]; metabolite N-acetyl-glutamine
  Log2(fold change) N-acetyl-glutamine: 0.0000
[3]; metabolite N-carbamoyl-L-aspartate
  Log2(fold change) N-carbamoyl-L-aspartate: -0.1894
[3]; metabolite NAD+
  Log2(fold change) NAD+: -0.0736
[3]; metabolite NADH
  Log2(fold change) NADH: 0.1619
[3]; metabolite NADP+
  Log2(fold change) NADP+: 0.0160
[3]; metabolite NADPH
  Log2(fold change) NADPH: 0.1653
[3]; metabolite O-acetyl-L-serine
  Log2(fold change) O-acetyl-L-serine: 0.0000
[3]; metabolite Octoluse 8/1P
  Log2(fold change) Octoluse 8/1P: -0.0774
[3]; metabolite Octoluse Bisphosphate
  Log2(fold change) Octoluse Bisphosphate: 0.0393
[3]; metabolite PD
  Log2(fold change) PD: -0.0500
[3]; metabolite PE
  Log2(fold change) PE: 0.0291
[3]; metabolite PEE
  Log2(fold change) PEE: 0.1599
[3]; metabolite PEEK
  Log2(fold change) PEEK: 0.3927
[3]; metabolite PVNF
  Log2(fold change) PVNF: 0.0618
[3]; metabolite Pyroglutamic acid
  Log2(fold change) Pyroglutamic acid: -0.2255
[3]; metabolite Pyrophosphate
  Log2(fold change) Pyrophosphate: 0.0000
[3]; metabolite Ribose-5-phosphate
  Log2(fold change) Ribose-5-phosphate: -0.0505
[3]; metabolite S-adenosyl-L-homocysteine
  Log2(fold change) S-adenosyl-L-homocysteine: -0.1747
[3]; metabolite S-adenosyl-L-methioninamine
  Log2(fold change) S-adenosyl-L-methioninamine: 0.0000
[3]; metabolite S-adenosyl-L-methionine
  Log2(fold change) S-adenosyl-L-methionine: 0.0000
[3]; metabolite S-methyl-5'-thioadenosine
  Log2(fold change) S-methyl-5'-thioadenosine: -5.54e-5
[3]; metabolite SD
  Log2(fold change) SD: 0.0815
[3]; metabolite SDL
  Log2(fold change) SDL: 0.0000
[3]; metabolite SID
  Log2(fold change) SID: 0.0000
[3]; metabolite Sedoheptulose bisphosphate
  Log2(fold change) Sedoheptulose bisphosphate: 0.2230
[3]; metabolite Thiamine pyrophosphate
  Log2(fold change) Thiamine pyrophosphate: -0.1023
[3]; metabolite UDP-D-glucose, log2 fold change
  Log2(fold changes) UDP-D-glucose: -0.0097
[3]; metabolite UDP-D-glucuronate, log2 fold change
  Log2(fold changes) UDP-D-glucuronate: 0.0081
[3]; metabolite UDP-N-acetyl-glucosamine, log2 fold change
  Log2(fold changes) UDP-N-acetyl-glucosamine: -0.0956
[3]; metabolite UDP, log2 fold change
  Log2(fold changes) UDP: -0.8655
[3]; metabolite UMP, log2 fold change
  Log2(fold changes) UMP: -0.2304
[3]; metabolite UTP, log2 fold change
  Log2(fold changes) UTP: 0.0058
[3]; metabolite hydroxyphenylpyruvate
  Log2(fold change) hydroxyphenylpyruvate: 0.0000
[3]; metabolite hydroxyproline/Aminolevulinate
  Log2(fold change) hydroxyproline/Aminolevulinate: 0.0000
[3]; metabolite hypoxanthine
  Log2(fold change) hypoxanthine: 0.0000
[3]; metabolite indole
  Log2(fold change) indole: 0.0000
[3]; metabolite inosine
  Log2(fold change) inosine: -0.3997
[3]; metabolite isoleucine
  Log2(fold change) isoleucine: 0.1103
[3]; metabolite lactate
  Log2(fold change) lactate: -0.4255
[3]; metabolite leucine
  Log2(fold change) leucine: -0.0845
[3]; metabolite lysine
  Log2(fold change) lysine: 0.0614
[3]; metabolite malate
  Log2(fold change) malate: -0.0964
[3]; metabolite maleic acid
  Log2(fold change) maleic acid: -0.0992
[3]; metabolite methionine
  Log2(fold change) methionine: 0.1002
[3]; metabolite myo-inositol
  Log2(fold change) myo-inositol: -0.6606
[3]; metabolite nicotinamide mononucleotide
  Log2(fold change) nicotinamide mononucleotide: -0.1524
[3]; metabolite nicotinate
  Log2(fold change) nicotinate: -0.4222
[3]; metabolite ornithine
  Log2(fold change) ornithine: 0.0000
[3]; metabolite orotate
  Log2(fold change) orotate: -0.5698
[3]; metabolite orotidine-5'-phosphate
  Log2(fold change) orotidine-5'-phosphate: -0.6109
[3]; metabolite oxaloacetate
  Log2(fold change) oxaloacetate: 0.0000
[3]; metabolite p-aminobenzoate
  Log2(fold change) p-aminobenzoate: 0.0000
[3]; metabolite p-hydroxybenzoate
  Log2(fold change) p-hydroxybenzoate: 0.0000
[3]; metabolite pantothenate
  Log2(fold change) pantothenate: -0.1253
[3]; metabolite phenylalanine
  Log2(fold change) phenylalanine: -0.1188
[3]; metabolite phenylpyruvate
  Log2(fold change) phenylpyruvate: 0.0000
[3]; metabolite phosphoenolpyruvate
  Log2(fold change) phosphoenolpyruvate: 0.1409
[3]; metabolite prephenate
  Log2(fold change) prephenate: 0.0000
[3]; metabolite proline
  Log2(fold change) proline: -0.1490
[3]; metabolite pyridoxine
  Log2(fold change) pyridoxine: -0.1465
[3]; metabolite pyruvate
  Log2(fold change) pyruvate: -0.2297
[3]; metabolite riboflavin
  Log2(fold change) riboflavin: 0.0675
[3]; metabolite ribose
  Log2(fold change) ribose: 0.0000
[3]; metabolite ribose-phosphate
  Log2(fold change) ribose-phosphate: -0.1362
[3]; metabolite ribulose-5-phosphate
  Log2(fold change) ribulose-5-phosphate: -0.0392
[3]; metabolite serine
  Log2(fold change) serine: 0.0266
[3]; metabolite sn-glycerol-3-phosphate
  Log2(fold change) sn-glycerol-3-phosphate: 0.0600
[3]; metabolite succinate/Methylmalonic acid
  Log2(fold change) succinate/Methylmalonic acid: 0.0813
[3]; metabolite succinyl-CoA/methylmalonyl-CoA
  Log2(fold change) succinyl-CoA/methylmalonyl-CoA: 0.0000
[3]; metabolite taurine
  Log2(fold change) taurine: 0.4424
[3]; metabolite thiamine
  Log2(fold change) thiamine: -0.0999
[3]; metabolite threonine/homoserine
  Log2(fold change) threonine/homoserine: -0.0376
[3]; metabolite thymidine
  Log2(fold change) thymidine: 0.0000
[3]; metabolite thymine, log2 fold change
  Log2(fold changes) thymine: 0.0000
[3]; metabolite trehalose-6-Phosphate, log2 fold change
  Log2(fold changes) trehalose-6-Phosphate: 0.0000
[3]; metabolite tryptophan, log2 fold change
  Log2(fold changes) tryptophan: -0.0757
[3]; metabolite tyrosine, log2 fold change
  Log2(fold changes) tyrosine: 0.0866
[3]; metabolite uridine, log2 fold change
  Log2(fold changes) uridine: -0.4854
[4]
  Ratio fil./std. (absorbance filtrate/standard): 0.69
physchem
  solubility at 1.5 h: 100 to 500 µM (≈ 53.6 to 268 µg/mL)
